Measurements published in US20240100105A1, “BACTERIOPHAGE TREATMENT FOR ACNE AND BIOFILMS” (priority 2017, published 2024).

What was measured:
[1] = tested on: P. granulosum clinical isolates 2004-8, 2004-4 and 2002-1; assay: Spot/drop assay on clinical isolates of P. granulosum (2004-8, 2004-4 and 2002-1); type: cell-based; settings: Clindamycin 1% gel ~10 μL; Erythromycin 20 μg/mL 5 μL, applied directly to bacterial lawn
Description: These bacterial strains show sensitivity to Clindamycin (1% gel, ˜10 μL) and Erythromycin (20 μg/mL, 5 μL) when the antibiotics are applied directly to a bacterial lawn of these strains, but are resistant to all the tested phage.

[2] = tested on: P. acnes PA1 biofilm; assay: Efficacy of phage mixtures on P. acnes biofilm; type: cell-based, Propionibacterium acnes; settings: for Remaining log bacteria after phage or antibiotic treatment of biofilm: phage 10^5 total PFU, Erythromycin 100 μg/mL
Description: To test our phage against P. acnes biofilms, the following experiment is performed on biofilms produced in the laboratory. An overnight culture of PA1 is diluted 1:1 with fresh BHIS and incubated for 4 hours at 37° C. after which the culture is once again diluted 1:1 this time with anacrobized BHIS supplemented with 1% glucose (final conc. 0.5%). Next, a 96-well plate (Thermo Fisher Scientific, Waltham, Massachusetts) is seeded with 200 μL of the diluted culture per well. The wells are sealed using 8-well strip caps (Thermo Fisher Scientific, Waltham, Massachusetts). This is incubated for 3 days to let the biofilm form. After 72 hours, 10 μL of either mixture 1 (PAP-12, PA1-9 and PA1-13), mixture 2 (PA7-1, PA1-9 and PA1-13), mixture 3 (PAP-12, PA1-9, PA1-13 and PS7-1) or 2 μL of Erythromycin is added to the relevant wells. The amount of phage added per mixture corresponds to 10^5 total PFU while for the antibiotic Erythromycin, a final concentration of 100 μg/mL (enough to inhibit PA1 growth when not in a biofilm) is used.
At 24 hrs or 48 hrs post-treatment depending on the wells, the medium is carefully removed from each well and the remaining biofilm is picked from each well into a separate Eppendorf tube using a sterile tip. At this point, 1 mL of fresh BHIS is added to the biofilm tubes, sonicated to remove the phage inside for 5 minutes (Elmasonic S 100, at 37 kHz) (Elma Schmidbauer GmbH (Singen, Germany), and centrifuged (4 min, 4000 rpm, 25° C.). The supernatant containing the phage is carefully removed to a clean tube for quantification and the process was repeated a total of 3 times to make sure all phage are removed.
To quantify the surviving bacteria, the pellet is re-suspended in 100 μL BHIS, 10-fold serially diluted in BHIS and plated on BHIS agar plates. The plates are incubated for 72 hrs at 37° C. anaerobically after which the colonies are counted and results rounded to the nearest log. In parallel, the phage quantities inside the biofilm are tested by taking the supernatant set aside earlier, and using the aforementioned plaque assay to assess the original quantities.

Compound: CC[C@H]1OC(=O)[C@H](C)[C@@H](O[C@H]2C[C@@](C)(OC)[C@@H](O)[C@H](C)O2)[C@H](C)[C@@H](O[C@@H]2O[C@H](C)C[C@H](N(C)C)[C@H]2O)[C@](C)(O)C[C@@H](C)C(=O)[C@H](C)[C@@H](O)[C@]1(C)O [Erythromycin]
- response of P. granulosum isolates to antibiotics [1]: sensitivity
- Remaining log bacteria after phage or antibiotic treatment of biofilm ([2]; 24 hours post treatment): More than 9 Logs CFU
- Remaining log bacteria after phage or antibiotic treatment of biofilm ([2]; 48 hours post treatment): 8 Logs CFU
- decrease in bacterial counts in biofilm ([2]; after 24 hours): no visible decrease
- remaining bacteria per milliliter ([2]; after 48 hours): 8 logs
